Target: cGMP-specific 3',5'-cyclic phosphodiesterase PDE5A (Homo sapiens) (UniProt O76074)
Test: Inhibition of human platelet PDE5

IC50: > 1 µM
Compound: CS(=O)(=O)Nc1ccc(C(=O)O[C@@H](Cc2c(Cl)c[n+]([O-])cc2Cl)c2ccc(OC(F)F)c(OCC3CC3)c2)cc1OCC1CC1 [Chf-6001]
